From patent US20070049564A1 (Wyeth, priority 2005, published 2007)
Converted amounts (≈) assume the structure as drawn. Like-named read-outs stand apart in the source and are kept apart here.

Legend:
S. agalactiae GC 4564 = assay: MIC, broth microdilution; conditions: Streptococcus agalactiae
S. aureus GC 2216 = assay: MIC, broth microdilution; conditions: Staphylococcus aureus
E. coli GC 1073 = assay: MIC, broth microdilution; conditions: Escherichia coli
P. aeruginosa GC 2214 = assay: MIC, broth microdilution; conditions: Pseudomonas aeruginosa
c. albicans GC 3066 = assay: MIC, broth microdilution
E. coli GC 3226 = assay: MIC, broth microdilution; conditions: Escherichia coli
E. faecium GC 2243 = assay: MIC, broth microdilution; conditions: Enterococcus faecium
S. pneumoniae+ GC 4465 = assay: MIC, broth microdilution; conditions: Streptococcus pneumoniae
E. coli = assay: Range of MIC for E. coli strains; conditions: Escherichia coli
E. coli GC 2271 = assay: MIC, broth microdilution; conditions: Escherichia coli
Experimental: (§1) Antimicrobial susceptibility testing. The in vitro activities of the antibiotics are determined by the broth microdilution method as recommended by the National Committee for Clinical Laboratory Standards (NCCLS) (1). Mueller-Hinton II broth (MHBII)(BBL Cockeysville, Md.) is the medium employed in the testing procedures. Microtiter plates containing serial dilutions of each antimicrobial agent are inoculated with each organism to yield the appropriate density (10^5 CFU/ml) in a 100 μl final volume. The plates are incubated for 18-22 hours at 35° C. in ambient air.
Representative compounds were first incubated in mouse serum for an hour prior to the in vitro testing against a panel of selected gram-positive and gram-negative bacteria strains. All compounds were also pre-incubated in water for an hour prior to testing as control.

E. faecalis GC 2242 = assay: MIC, broth microdilution; conditions: Enterococcus faecalis
Staph. aureus Smith = assay: In vivo activity (oral, iv; ED50) against Staph. aureus Smith in mice
Experimental: Representative examples of compounds of Formula I were tested for the oral efficacy using S. aureus Smith in mice.

E. coli GC 4559 = assay: MIC, broth microdilution; conditions: Escherichia coli
S. aureus GC 6335 = assay: MIC, broth microdilution; conditions: Staphylococcus aureus
Experimental: as §1
Representative compounds were first incubated in mouse serum for an hour prior to the in vitro testing against a panel of selected gram-positive and gram-negative bacteria strains. All compounds were also pre-incubated in water for an hour prior to testing as control. Representative compounds of Formula I were incubated in human serum prior to MIC determination.

S. aureus GC 6469 = assay: MIC, broth microdilution; conditions: Staphylococcus aureus
S. aureus GC 4536 = assay: MIC, broth microdilution; conditions: Staphylococcus aureus
E. coli GC 2270 = assay: MIC, broth microdilution; conditions: Escherichia coli
E. faecalis GC 2265 = assay: MIC, broth microdilution; conditions: Enterococcus faecalis
S. pyogenes GC 4563 = assay: MIC, broth microdilution; conditions: Streptococcus pyogenes
E. coli GC 2232 = assay: MIC, broth microdilution; conditions: Escherichia coli

For `CN(C)c1cc(NC(=O)CN(C(=O)OCOC(=O)c2ccc(C(C)(C)C)cc2)C(C)(C)C)c(O)c2c1C[C@H]1C[C@H]3[C@H](N(C)C)C(O)=C(C(N)=O)C(=O)[C@@]3(O)C(O)=C1C2=O` [Example 43, ({[(2-{[(5aR,6aS,7S,10aS)-9-(aminocarbonyl)-4,7-bis(dimethylamino)-1,8,10a,11-tetrahydroxy-10,12-dioxo-5,5a,6,6a,7,10,10a,12-octahydrotetracen-2-yl]amino}-2-oxoethyl)(tert-butyl)amino]carbonyl}oxy)methyl 4-tert-butylbenzoate], the MIC (S. agalactiae GC 4564; GC4564, read-out: MINIMAL INHIBITORY CONCENTRATION MIC, pre-incubated in Human Serum) was 2 µg/mL (≈ 2.44 µM), the MIC (S. agalactiae GC 4564; GC4564, read-out: MINIMAL INHIBITORY CONCENTRATION MIC, pre-incubated in Mouse Serum) was under 0.06 µg/mL and the MIC (S. agalactiae GC 4564; GC4564, read-out: MINIMAL INHIBITORY CONCENTRATION MIC, pre-incubated in Water) was 2 µg/mL (≈ 2.44 µM). It also gave an MIC (S. aureus GC 2216; GC2216, read-out: MINIMAL INHIBITORY CONCENTRATION MIC, pre-incubated in Human Serum) of 32 µg/mL (≈ 39 µM), an MIC (S. aureus GC 2216; GC2216, read-out: MINIMAL INHIBITORY CONCENTRATION MIC, pre-incubated in Mouse Serum) of 0.5 µg/mL (≈ 0.61 µM) and an MIC (S. aureus GC 2216; GC2216, read-out: MINIMAL INHIBITORY CONCENTRATION MIC, pre-incubated in Water) of 64 µg/mL (≈ 78.1 µM). For the same compound, the MIC (E. coli GC 1073; GC1073, read-out: MINIMAL INHIBITORY CONCENTRATION MIC, pre-incubated in Human Serum) was over 64 µg/mL, the MIC (E. coli GC 1073; GC1073, read-out: MINIMAL INHIBITORY CONCENTRATION MIC, pre-incubated in Mouse Serum) was 0.5 µg/mL (≈ 0.61 µM) and the MIC (E. coli GC 1073; GC1073, read-out: MINIMAL INHIBITORY CONCENTRATION MIC, pre-incubated in Water) was over 64 µg/mL. The MIC (P. aeruginosa GC 2214; GC2214, read-out: MINIMAL INHIBITORY CONCENTRATION MIC, pre-incubated in Human Serum) was over 64 µg/mL, the MIC (P. aeruginosa GC 2214; GC2214, read-out: MINIMAL INHIBITORY CONCENTRATION MIC, pre-incubated in Mouse Serum) was 16 µg/mL (≈ 19.5 µM) and the MIC (P. aeruginosa GC 2214; GC2214, read-out: MINIMAL INHIBITORY CONCENTRATION MIC, pre-incubated in Water) was over 64 µg/mL. The MIC (c. albicans GC 3066; Candida albicans, GC3066, read-out: MINIMAL INHIBITORY CONCENTRATION MIC) was over 64 µg/mL, the “MINIMAL INHIBITORY CONCENTRATION MIC” value (c. albicans GC 3066; pre-incubated in Human Serum) was over 64 UG/ML and the “MINIMAL INHIBITORY CONCENTRATION MIC” value (c. albicans GC 3066; pre-incubated in Mouse Serum) was over 64 UG/ML. For the same compound, the MIC (E. coli GC 3226; GC3226, read-out: MINIMAL INHIBITORY CONCENTRATION MIC, pre-incubated in Human Serum) was over 64 µg/mL, the MIC (E. coli GC 3226; GC3226, read-out: MINIMAL INHIBITORY CONCENTRATION MIC, pre-incubated in Mouse Serum) was 1 µg/mL (≈ 1.22 µM) and the MIC (E. coli GC 3226; GC3226, read-out: MINIMAL INHIBITORY CONCENTRATION MIC, pre-incubated in Water) was over 64 µg/mL. It also gave an MIC (E. faecium GC 2243; GC2243, read-out: MINIMAL INHIBITORY CONCENTRATION MIC, pre-incubated in Human Serum) of 0.25 µg/mL (≈ 0.305 µM), an MIC (E. faecium GC 2243; GC2243, read-out: MINIMAL INHIBITORY CONCENTRATION MIC, pre-incubated in Mouse Serum) of 0.12 µg/mL (≈ 0.146 µM) and an MIC (E. faecium GC 2243; GC2243, read-out: MINIMAL INHIBITORY CONCENTRATION MIC, pre-incubated in Water) of 0.25 µg/mL (≈ 0.305 µM). For the same compound, the MIC (S. pneumoniae+ GC 4465; read-out: MINIMAL INHIBITORY CONCENTRATION MIC, pre-incubated in Human Serum) was 2 µg/mL (≈ 2.44 µM), the MIC (S. pneumoniae+ GC 4465; read-out: MINIMAL INHIBITORY CONCENTRATION MIC, pre-incubated in Mouse Serum) was 2 µg/mL (≈ 2.44 µM) and the MIC (S. pneumoniae+ GC 4465; read-out: MINIMAL INHIBITORY CONCENTRATION MIC, pre-incubated in Water) was 2 µg/mL (≈ 2.44 µM). It also gave an MIC (E. coli; 20 h, read-out: Range of MIC, E. coli (Mouse Serum)) of 0.25 to 2 µg/mL (≈ 0.305 to 2.44 µM), an MIC (E. coli; read-out: Minimum inhibitory concentration (MIC), E. coli (Human Serum)) of over 64 µg/mL and an MIC (E. coli; read-out: Minimum inhibitory concentration (MIC), E. coli (water)) of over 64 µg/mL. It also gave an MIC (E. coli; read-out: Range of MIC, E. coli (Water)) of over 64 µg/mL, an MIC (E. coli GC 2271; GC2271, read-out: MINIMAL INHIBITORY CONCENTRATION MIC, pre-incubated in Human Serum) of over 64 µg/mL and an MIC (E. coli GC 2271; GC2271, read-out: MINIMAL INHIBITORY CONCENTRATION MIC, pre-incubated in Mouse Serum) of 0.25 µg/mL (≈ 0.305 µM). For the same compound, the MIC (E. coli GC 2271; GC2271, read-out: MINIMAL INHIBITORY CONCENTRATION MIC, pre-incubated in Water) was over 64 µg/mL, the MIC (E. faecalis GC 2242; GC2242, read-out: MINIMAL INHIBITORY CONCENTRATION MIC, pre-incubated in Human Serum) was 4 µg/mL (≈ 4.88 µM) and the MIC (E. faecalis GC 2242; GC2242, read-out: MINIMAL INHIBITORY CONCENTRATION MIC, pre-incubated in Mouse Serum) was 0.5 µg/mL (≈ 0.61 µM). For the same compound, the MIC (E. faecalis GC 2242; GC2242, read-out: MINIMAL INHIBITORY CONCENTRATION MIC, pre-incubated in Water) was 16 µg/mL (≈ 19.5 µM), the ED50 (Staph. aureus Smith; Staphylococcus aureus, in Mus musculus, po, read-out: ED50 Staph Smith SOD) was 12.8 mg/kg and the ED50 (Staph. aureus Smith; iv, read-out: ED50 Staph Smith SIV) was 0.83 mg/kg. For the same compound, the MIC (E. coli GC 4559; GC4559, read-out: MINIMAL INHIBITORY CONCENTRATION MIC, pre-incubated in Human Serum) was over 64 µg/mL, the MIC (E. coli GC 4559; GC4559, read-out: MINIMAL INHIBITORY CONCENTRATION MIC, pre-incubated in Mouse Serum) was 0.5 µg/mL (≈ 0.61 µM) and the MIC (E. coli GC 4559; GC4559, read-out: MINIMAL INHIBITORY CONCENTRATION MIC, pre-incubated in Water) was over 64 µg/mL. For the same compound, the MIC (S. aureus GC 6335; GC6335, read-out: MINIMAL INHIBITORY CONCENTRATION MIC, pre-incubated in Human Serum) was 64 µg/mL (≈ 78.1 µM), the MIC (S. aureus GC 6335; GC6335, read-out: MINIMAL INHIBITORY CONCENTRATION MIC, pre-incubated in Mouse Serum) was 1 µg/mL (≈ 1.22 µM) and the MIC (S. aureus GC 6335; GC6335, read-out: MINIMAL INHIBITORY CONCENTRATION MIC, pre-incubated in Water) was 64 µg/mL (≈ 78.1 µM). It also gave an MIC (S. aureus GC 6469; GC6469, read-out: MINIMAL INHIBITORY CONCENTRATION MIC, pre-incubated in Human Serum) of 32 µg/mL (≈ 39 µM), an MIC (S. aureus GC 6469; GC6469, read-out: MINIMAL INHIBITORY CONCENTRATION MIC, pre-incubated in Mouse Serum) of 1 µg/mL (≈ 1.22 µM) and an MIC (S. aureus GC 6469; GC6469, read-out: MINIMAL INHIBITORY CONCENTRATION MIC, pre-incubated in Water) of over 64 µg/mL. The MIC (S. aureus GC 4536; GC4536, read-out: MINIMAL INHIBITORY CONCENTRATION MIC, pre-incubated in Human Serum) was 16 µg/mL (≈ 19.5 µM), the MIC (S. aureus GC 4536; GC4536, read-out: MINIMAL INHIBITORY CONCENTRATION MIC, pre-incubated in Mouse Serum) was 1 µg/mL (≈ 1.22 µM) and the MIC (S. aureus GC 4536; GC4536, read-out: MINIMAL INHIBITORY CONCENTRATION MIC, pre-incubated in Water) was 32 µg/mL (≈ 39 µM). The MIC (E. coli GC 2270; GC2270, read-out: MINIMAL INHIBITORY CONCENTRATION MIC, pre-incubated in Human Serum) was over 64 µg/mL, the MIC (E. coli GC 2270; GC2270, read-out: MINIMAL INHIBITORY CONCENTRATION MIC, pre-incubated in Mouse Serum) was 0.25 µg/mL (≈ 0.305 µM) and the MIC (E. coli GC 2270; GC2270, read-out: MINIMAL INHIBITORY CONCENTRATION MIC, pre-incubated in Water) was over 64 µg/mL. It also gave an MIC (E. faecalis GC 2265; GC2265, read-out: MINIMAL INHIBITORY CONCENTRATION MIC, pre-incubated in Human Serum) of 8 µg/mL (≈ 9.76 µM), an MIC (E. faecalis GC 2265; GC2265, read-out: MINIMAL INHIBITORY CONCENTRATION MIC, pre-incubated in Mouse Serum) of 0.5 µg/mL (≈ 0.61 µM) and an MIC (E. faecalis GC 2265; GC2265, read-out: MINIMAL INHIBITORY CONCENTRATION MIC, pre-incubated in Water) of 32 µg/mL (≈ 39 µM). It also gave an MIC (S. pyogenes GC 4563; GC4563, read-out: MINIMAL INHIBITORY CONCENTRATION MIC, pre-incubated in Human Serum) of under 0.06 µg/mL, an MIC (S. pyogenes GC 4563; GC4563, read-out: MINIMAL INHIBITORY CONCENTRATION MIC, pre-incubated in Mouse Serum) of under 0.06 µg/mL and an MIC (S. pyogenes GC 4563; GC4563, read-out: MINIMAL INHIBITORY CONCENTRATION MIC, pre-incubated in Water) of under 0.06 µg/mL. The MIC (E. coli GC 2232; GC2232, read-out: MINIMAL INHIBITORY CONCENTRATION MIC, pre-incubated in Human Serum) was over 64 µg/mL, the MIC (E. coli GC 2232; GC2232, read-out: MINIMAL INHIBITORY CONCENTRATION MIC, pre-incubated in Mouse Serum) was 0.5 µg/mL (≈ 0.61 µM) and the MIC (E. coli GC 2232; GC2232, read-out: MINIMAL INHIBITORY CONCENTRATION MIC, pre-incubated in Water) was over 64 µg/mL.
